Experimental data: the NIST ThermoML archive (doi:10.1016/j.jct.2016.01.019)

Assay: refractive index (other wavelength) (dimensionless); xn = mol fraction of the nth substance listed
Conditions: 94.64 kPa, Liquid, Standard Abbe refractometry

OCCCO [propan-1,3-diol] + CC(O)CO
refractive index
Conditions	x2 = 0	x2 = 0.0985	x2 = 0.2023	x2 = 0.3015	x2 = 0.3961	x2 = 0.5009	x2 = 0.5961	x2 = 0.6965	x2 = 0.7974	x2 = 0.8985
293.15 K, Wavelength=404.7 nm	1.45177	1.45152	1.45117	1.45077	1.45025	1.44969	1.44909	1.44823	1.44738	1.44618
293.15 K, Wavelength=435.8 nm	1.44842	1.44817	1.44786	1.44741	1.44688	1.44623	1.4456	1.44492	1.44401	1.44315
293.15 K, Wavelength=486.1 nm	1.4444	1.44417	1.44386	1.44341	1.4429	1.44217	1.44132	1.44021	1.43935	1.43821
293.15 K, Wavelength=546.1 nm	1.44112	1.44088	1.44041	1.44013	1.43961	1.43884	1.43806	1.43695	1.4362	1.43491
293.15 K, Wavelength=587.6 nm	1.43939	1.43913	1.43875	1.4384	1.43788	1.43721	1.43623	1.43524	1.43439	1.43321
293.15 K, Wavelength=632.8 nm	1.43781	1.43756	1.43729	1.43683	1.43632	1.43545	1.43467	1.43369	1.43253	1.43168
293.15 K, Wavelength=644 nm	1.43746	1.43722	1.43699	1.43649	1.43597	1.43501	1.43435	1.43334	1.43219	1.43133
293.15 K, Wavelength=706.5 nm	1.43577	1.43555	1.43506	1.43479	1.43428	1.43373	1.43315	1.43207	1.4311	1.42985
298.15 K, Wavelength=404.7 nm	1.45037	1.44979	1.44932	1.4489	1.44849	1.44768	1.44694	1.44595	1.44515	1.44396
298.15 K, Wavelength=435.8 nm	1.447	1.44654	1.44606	1.44553	1.44512	1.44432	1.4436	1.44261	1.44156	1.44059
298.15 K, Wavelength=486.1 nm	1.44301	1.44246	1.44198	1.44156	1.44107	1.44037	1.43963	1.43868	1.43776	1.43667
298.15 K, Wavelength=546.1 nm	1.43975	1.43919	1.43879	1.4383	1.43762	1.43712	1.43618	1.43541	1.43467	1.43341
298.15 K, Wavelength=587.6 nm	1.43802	1.43746	1.437	1.43658	1.43619	1.43539	1.43469	1.43371	1.43285	1.43168
298.15 K, Wavelength=632.8 nm	1.43645	1.4359	1.43532	1.43502	1.43462	1.43383	1.43322	1.43217	1.43136	1.43004
298.15 K, Wavelength=644 nm	1.43611	1.43555	1.43498	1.43455	1.43428	1.43349	1.433	1.43183	1.43102	1.4298
298.15 K, Wavelength=706.5 nm	1.43441	1.43388	1.43335	1.43299	1.4326	1.43191	1.43129	1.43036	1.42924	1.42812
303.15 K, Wavelength=404.7 nm	1.44902	1.44844	1.44795	1.44749	1.44689	1.44619	1.44547	1.44435	1.44351	1.44237
303.15 K, Wavelength=435.8 nm	1.44566	1.44521	1.44451	1.44394	1.44353	1.44285	1.44213	1.44101	1.44017	1.43903
303.15 K, Wavelength=486.1 nm	1.44168	1.44133	1.44074	1.44019	1.43962	1.43892	1.43821	1.43713	1.43628	1.43516
303.15 K, Wavelength=546.1 nm	1.43844	1.43797	1.43739	1.43695	1.43637	1.43567	1.43498	1.43387	1.43316	1.43194
303.15 K, Wavelength=587.6 nm	1.43671	1.43615	1.43575	1.43524	1.43466	1.43396	1.43314	1.43216	1.43125	1.43024
303.15 K, Wavelength=632.8 nm	1.43514	1.4344	1.43386	1.43339	1.43311	1.43232	1.43161	1.43065	1.42981	1.42869
303.15 K, Wavelength=644 nm	1.4348	1.43405	1.43371	1.43304	1.43277	1.43207	1.43136	1.43031	1.42947	1.42834
303.15 K, Wavelength=706.5 nm	1.43312	1.43234	1.43183	1.43136	1.43109	1.4304	1.42989	1.42884	1.428	1.42669
308.15 K, Wavelength=404.7 nm	1.44755	1.44681	1.44642	1.44583	1.44528	1.44466	1.44403	1.44294	1.44202	1.44072
308.15 K, Wavelength=435.8 nm	1.44419	1.44355	1.44296	1.44258	1.44194	1.44132	1.4406	1.43962	1.43868	1.43738
308.15 K, Wavelength=486.1 nm	1.44027	1.43972	1.43922	1.43857	1.43806	1.43743	1.43673	1.43585	1.43482	1.43353
308.15 K, Wavelength=546.1 nm	1.43699	1.43636	1.43579	1.43522	1.4348	1.43417	1.43347	1.43254	1.43163	1.43033
308.15 K, Wavelength=587.6 nm	1.43529	1.43471	1.434	1.43353	1.4331	1.43247	1.43187	1.43093	1.42993	1.42865
308.15 K, Wavelength=632.8 nm	1.43375	1.43302	1.4324	1.432	1.43158	1.43095	1.43034	1.42938	1.42838	1.42712
308.15 K, Wavelength=644 nm	1.4334	1.43286	1.4322	1.43185	1.43123	1.43061	1.43	1.42895	1.42803	1.42677
308.15 K, Wavelength=706.5 nm	1.4317	1.43089	1.4305	1.42987	1.42955	1.42893	1.42834	1.42729	1.42637	1.42508
313.15 K, Wavelength=404.7 nm	1.44615	1.44547	1.44484	1.44421	1.44353	1.4429	1.44213	1.4412	1.44027	1.4391
313.15 K, Wavelength=435.8 nm	1.4428	1.44212	1.44145	1.44077	1.44021	1.43956	1.43886	1.43787	1.43694	1.43576
313.15 K, Wavelength=486.1 nm	1.43888	1.43822	1.43758	1.43688	1.43634	1.43565	1.435	1.43401	1.43313	1.43193
313.15 K, Wavelength=546.1 nm	1.43562	1.43502	1.4344	1.43385	1.43312	1.43257	1.43175	1.43082	1.42992	1.42873
313.15 K, Wavelength=587.6 nm	1.43392	1.43331	1.43262	1.43194	1.43132	1.43077	1.43006	1.42912	1.42824	1.42705
313.15 K, Wavelength=632.8 nm	1.43238	1.43157	1.43095	1.43031	1.42988	1.42924	1.42852	1.42758	1.42673	1.42553
313.15 K, Wavelength=644 nm	1.43203	1.43122	1.43065	1.42997	1.42954	1.429	1.42818	1.42724	1.42638	1.42518
313.15 K, Wavelength=706.5 nm	1.43035	1.42953	1.42898	1.4284	1.42788	1.42723	1.42653	1.42558	1.4247	1.42352
318.15 K, Wavelength=404.7 nm	1.44474	1.44416	1.44346	1.44271	1.4421	1.44134	1.44059	1.43957	1.43859	1.43751
318.15 K, Wavelength=435.8 nm	1.44141	1.44072	1.44015	1.43938	1.43872	1.438	1.43725	1.43624	1.43526	1.43417
318.15 K, Wavelength=486.1 nm	1.43754	1.43671	1.43608	1.43535	1.43468	1.43396	1.43322	1.43243	1.43145	1.43035
318.15 K, Wavelength=546.1 nm	1.43429	1.43372	1.43312	1.43243	1.43177	1.43107	1.43022	1.42925	1.42827	1.42718
318.15 K, Wavelength=587.6 nm	1.43261	1.43191	1.43127	1.43053	1.42988	1.42918	1.42854	1.42758	1.42659	1.42551
318.15 K, Wavelength=632.8 nm	1.43109	1.43037	1.42963	1.42894	1.42826	1.42752	1.42682	1.42606	1.42507	1.424
318.15 K, Wavelength=644 nm	1.43075	1.43013	1.4294	1.42884	1.42811	1.42748	1.42668	1.42572	1.42473	1.42365
318.15 K, Wavelength=706.5 nm	1.42908	1.42827	1.4276	1.42698	1.42645	1.42575	1.425	1.42406	1.42308	1.42199
